In publication PMC12040169 (PLOS Biology, 2025):

Assay: in vitro
Settings: human, hela cells, % viability
For `CC1(C)CC(N(Cc2ccccc2)Cc2ncc[nH]2)CC(C)(C)N1` [CBK283179], the viability at 28.5 h, 10 µM was 95.2%. For `Cc1n[nH]c(C)c1CNC(=O)CCc1ccc(Cl)cc1` [CBK283185], the viability at 28.5 h, 10 µM was 95%. With `Cc1ccc(CN(CCCn2ccnc2)Cc2ccccc2O)o1` [CBK283189] the viability at 28.5 h, 10 µM was 99.8%. `Cc1ccc(CN(Cc2nccn2C)C2CC(C)(C)NC(C)(C)C2)o1` [CBK283190] showed a viability at 28.5 h, 10 µM of 112%. `Cc1ccc(CN(Cc2ncc[nH]2)C2CC(C)(C)NC(C)(C)C2)o1` [CBK283191] showed a viability at 28.5 h, 10 µM of 96%. Compound `CC1(C)CC(N(Cc2ccccc2)Cc2c[nH]cn2)CC(C)(C)N1` [CBK283196] has a viability at 28.5 h, 10 µM of 103%. `CN(C)CCCN(Cc1ccco1)Cc1c[nH]nc1-c1cccs1` [CBK283198] showed a viability at 28.5 h, 10 µM of 106%. In the case of `Cc1nc2sccn2c1CN(CCCN(C)C)Cc1ccco1` [CBK283199], the viability at 28.5 h, 10 µM is reported as 92.5%. `OC1CCN(Cc2ccc(-c3ccc(F)cc3F)o2)CC1` [CBK283200] gave a viability at 28.5 h, 10 µM of 98.9%. In the case of `CCn1cc(CN(CCCN(C)C)Cc2ccc(C)o2)c(C)n1` [CBK283201], the viability at 28.5 h, 10 µM is reported as 95.5%. For `Cn1ccnc1CN1C[C@@H]2CCCN2C[C@@H]1Cc1ccccc1` [CBK283202], the viability at 28.5 h, 10 µM was 91.1%. Work on `CN(CCc1ccccc1)Cc1nc2ccccc2c(=O)[nH]1` [CBK283204] yielded a viability at 28.5 h, 10 µM of 98.7%. `O=c1[nH]c(CN2CCCCCCC2)nc2ccccc12` [CBK283205] showed a viability at 28.5 h, 10 µM of 117%. `CC1CCc2n[nH]c(C(=O)N3CCC(O)C(C)C3)c2C1` (centres unmarked) [CBK283207] showed a viability at 28.5 h, 10 µM of 107%. Work on `O=C(NCCCc1ccccn1)c1cc2ccc(F)cc2[nH]1` [CBK283211] yielded a viability at 28.5 h, 10 µM of 84.4%. Compound `CC1CCc2n[nH]c(C(=O)NCCCC3CCOC3)c2C1` (centres unmarked) [CBK283212] has a viability at 28.5 h, 10 µM of 102%. For `O=C(NCCCC1CCOC1)c1cc2ccc(F)cc2[nH]1` (centres unmarked) [CBK283213], the viability at 28.5 h, 10 µM was 110%. Work on `CCOC(=O)C(C)NC(=O)c1cc2ccc(F)cc2[nH]1` (centres unmarked) [CBK283214] yielded a viability at 28.5 h, 10 µM of 107%. Compound `C1=CCC(CN(CCCn2ccnc2)Cc2cccnc2)CC1` (centres unmarked) [CBK283216] has a viability at 28.5 h, 10 µM of 88.6%. With `C=Cn1ncc(CN(CCCn2ccnc2)CC2CC=CCC2)c1C` (centres unmarked) [CBK283219] the viability at 28.5 h, 10 µM was 96.8%. With `CC(C)C1c2cccn2CCN1C(=O)c1cc(-c2ccccn2)n[nH]1` (centres unmarked) [CBK283223] the viability at 28.5 h, 10 µM was 81.9%. With `CCC1c2ccc(C)n2CCN1C(=O)c1cc(-c2ccccn2)n[nH]1` (centres unmarked) [CBK283225] the viability at 28.5 h, 10 µM was 86.4%. `C[C@@H](Cn1c(C(F)(F)F)cc2cccnc21)NC(=O)C1CCC1` [CBK283230] showed a viability at 28.5 h, 10 µM of 109%. In the case of `Cc1ccc(CN(CCCN2CCOCC2)Cc2ccoc2)o1` [CBK283234], the viability at 28.5 h, 10 µM is reported as 81%. Compound `Cc1ccc(CN(CCN(C)C)Cc2c(C)nn(C(C)C)c2C)o1` [CBK283235] has a viability at 28.5 h, 10 µM of 100%. `CC(NC(=O)CSCc1ccco1)c1ccccc1` (centres unmarked) [CBK283237] showed a viability at 28.5 h, 10 µM of 100%. With `CC(Cc1cccs1)NC(=O)CSCc1ccco1` (centres unmarked) [CBK283238] the viability at 28.5 h, 10 µM was 84.8%. With `Cc1ccc2c(CC(=O)N(C)CCc3cn[nH]c3)coc2c1` [CBK283239] the viability at 28.5 h, 10 µM was 90.8%. Work on `Cc1ccc2c(CC(=O)NCCn3cncn3)coc2c1` [CBK283240] yielded a viability at 28.5 h, 10 µM of 93.8%. In the case of `COc1ccc(C2(CN3CCC(NC(C)=O)CC3)CCCC2)cc1` [CBK283241], the viability at 28.5 h, 10 µM is reported as 85.4%. `COc1cccc(C2(O)CCCC3CN(C(C)=O)CC32)c1` (centres unmarked) [CBK283242] showed a viability at 28.5 h, 10 µM of 80.8%. `Cc1cc(C)n(C(C)CNC(=O)c2cc(C3CC3)on2)n1` (centres unmarked) [CBK283243] showed a viability at 28.5 h, 10 µM of 103%. `CC(Cc1cccs1)NC(=O)c1cc(C2CC2)on1` (centres unmarked) [CBK283244] gave a viability at 28.5 h, 10 µM of 107%. `C[S+]([O-])CCNC(=O)c1cnn(-c2ccc(F)cc2)c1` (centres unmarked) [CBK283245] showed a viability at 28.5 h, 10 µM of 89.1%. `Cc1c(C(=O)NCCCCn2ccnc2)[nH]c2ccccc12` [CBK283246] showed a viability at 28.5 h, 10 µM of 94.3%. `CCc1[nH]c2ccc(C(=O)NC3CCCOC3)cc2c1C` (centres unmarked) [CBK283247] showed a viability at 28.5 h, 10 µM of 95.9%. Compound `Cc1ccc(CN(CCCn2ccnc2)Cc2ccsc2)o1` [CBK283253] has a viability at 28.5 h, 10 µM of 96.4%. Compound `CCCN1CCC(CNC(=O)c2cc3c(OC)cccc3n2C)CC1` [CBK283255] has a viability at 28.5 h, 10 µM of 90.1%.
